# Article PMC11233931, “Remodeling tumor‐associated macrophage for anti‐cancer effects by rational design of irreversible inhibition of mitogen‐activated protein kinase‐activated protein kinase 2” (MedComm, 2024)
# Tests used:
# Assay in all cases: Eurofins kinase selectivity profile against 380 other human recombinant kinases (Table S2)
# Type in all cases: biochemical
# [1] = biological target: T1, 380 human recombinant protein kinases (Homo sapiens, UniProt P19784); settings: CK2α2(h), read-out: Inhibition rate
# T1 construct: purchased Eurofins (Celle Lévescault)
# Outline: (§1)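 Values come from a contract kinase-profiling service that tested the compound at multiple concentrations across 380 recombinant human kinases, as an off-target check against the MK2 activity.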
# [2] = biological target: T2, 380 human recombinant protein kinases (Homo sapiens, UniProt P50750); settings: CDK9/cyclin T1(h), read-out: Inhibition rate
# T2 construct: purchased Eurofins (Celle Lévescault)
# Outline: as §1
# [3] = biological target: T3, 380 human recombinant protein kinases (Homo sapiens, UniProt P54753); settings: EphB3(h), read-out: Inhibition rate
# T3 construct: purchased Eurofins (Celle Lévescault)
# T3 sequence (P54753 34-998): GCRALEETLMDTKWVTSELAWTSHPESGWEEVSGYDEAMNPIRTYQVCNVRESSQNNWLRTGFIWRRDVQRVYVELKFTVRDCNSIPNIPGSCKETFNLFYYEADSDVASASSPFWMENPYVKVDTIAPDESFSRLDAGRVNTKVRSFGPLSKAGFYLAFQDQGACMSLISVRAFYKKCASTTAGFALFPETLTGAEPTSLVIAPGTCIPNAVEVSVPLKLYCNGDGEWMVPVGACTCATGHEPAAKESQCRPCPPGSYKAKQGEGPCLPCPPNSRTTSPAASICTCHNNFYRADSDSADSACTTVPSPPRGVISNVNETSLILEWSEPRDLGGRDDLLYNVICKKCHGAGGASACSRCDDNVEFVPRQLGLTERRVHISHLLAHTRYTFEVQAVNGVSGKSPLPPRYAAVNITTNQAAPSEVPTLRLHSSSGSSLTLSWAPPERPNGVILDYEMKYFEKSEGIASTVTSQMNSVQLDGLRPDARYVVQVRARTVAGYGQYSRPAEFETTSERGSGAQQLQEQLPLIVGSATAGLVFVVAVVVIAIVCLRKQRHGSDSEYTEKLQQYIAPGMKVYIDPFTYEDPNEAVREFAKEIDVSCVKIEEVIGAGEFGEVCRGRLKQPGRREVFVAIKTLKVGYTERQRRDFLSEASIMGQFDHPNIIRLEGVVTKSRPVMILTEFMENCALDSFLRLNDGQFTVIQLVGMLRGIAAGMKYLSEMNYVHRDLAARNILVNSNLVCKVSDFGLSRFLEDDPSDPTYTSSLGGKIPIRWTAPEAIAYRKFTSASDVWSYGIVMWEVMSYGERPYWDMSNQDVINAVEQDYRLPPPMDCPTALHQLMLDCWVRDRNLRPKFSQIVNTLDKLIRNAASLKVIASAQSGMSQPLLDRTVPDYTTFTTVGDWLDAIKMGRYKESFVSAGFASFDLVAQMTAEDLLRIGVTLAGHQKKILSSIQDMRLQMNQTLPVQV
# Outline: as §1
# [4] = biological target: T4, 380 human recombinant protein kinases (Homo sapiens, UniProt Q13535); settings: ATR/ATRIP(h), read-out: Inhibition rate (%)
# T4 construct: purchased Eurofins (Celle Lévescault)
# Outline: as §1
# [5] = biological target: T5, 380 human recombinant protein kinases (Homo sapiens, UniProt Q99683); settings: ASK1(h), read-out: Inhibition rate
# T5 construct: purchased Eurofins (Celle Lévescault)
# T5 sequence (Q99683 1-1374): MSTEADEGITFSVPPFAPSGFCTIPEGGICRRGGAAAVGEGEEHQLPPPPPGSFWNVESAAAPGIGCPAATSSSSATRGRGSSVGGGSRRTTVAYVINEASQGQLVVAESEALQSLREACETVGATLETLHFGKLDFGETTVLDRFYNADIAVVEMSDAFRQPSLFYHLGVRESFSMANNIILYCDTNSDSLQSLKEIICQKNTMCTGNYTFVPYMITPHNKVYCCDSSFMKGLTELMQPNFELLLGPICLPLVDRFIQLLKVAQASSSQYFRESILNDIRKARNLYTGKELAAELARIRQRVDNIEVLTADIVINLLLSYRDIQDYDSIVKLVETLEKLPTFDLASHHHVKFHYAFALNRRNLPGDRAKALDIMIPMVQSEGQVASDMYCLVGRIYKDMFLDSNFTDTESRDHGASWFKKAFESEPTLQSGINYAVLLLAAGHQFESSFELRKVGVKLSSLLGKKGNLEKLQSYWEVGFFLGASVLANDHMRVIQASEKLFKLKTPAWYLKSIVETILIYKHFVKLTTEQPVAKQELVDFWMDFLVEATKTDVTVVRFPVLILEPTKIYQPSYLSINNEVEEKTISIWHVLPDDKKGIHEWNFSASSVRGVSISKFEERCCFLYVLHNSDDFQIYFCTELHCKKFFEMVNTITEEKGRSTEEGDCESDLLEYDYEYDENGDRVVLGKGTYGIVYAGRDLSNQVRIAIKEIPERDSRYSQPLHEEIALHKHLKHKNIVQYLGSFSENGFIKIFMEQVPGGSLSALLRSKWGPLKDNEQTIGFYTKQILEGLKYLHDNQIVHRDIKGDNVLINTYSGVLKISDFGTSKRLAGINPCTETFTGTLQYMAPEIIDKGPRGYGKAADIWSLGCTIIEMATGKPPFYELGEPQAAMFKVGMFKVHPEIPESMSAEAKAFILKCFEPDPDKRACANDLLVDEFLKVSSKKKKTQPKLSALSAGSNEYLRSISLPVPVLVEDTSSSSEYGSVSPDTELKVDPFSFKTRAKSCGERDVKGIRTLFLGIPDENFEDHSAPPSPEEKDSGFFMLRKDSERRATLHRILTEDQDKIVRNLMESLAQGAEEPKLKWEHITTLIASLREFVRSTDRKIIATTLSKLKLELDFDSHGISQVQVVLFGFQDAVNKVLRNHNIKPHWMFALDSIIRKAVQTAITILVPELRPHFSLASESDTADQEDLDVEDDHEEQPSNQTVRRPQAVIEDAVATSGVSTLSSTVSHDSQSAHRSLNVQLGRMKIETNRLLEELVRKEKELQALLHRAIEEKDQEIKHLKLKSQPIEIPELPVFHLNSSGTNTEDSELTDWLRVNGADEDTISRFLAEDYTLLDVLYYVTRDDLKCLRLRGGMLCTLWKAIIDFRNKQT
# Outline: as §1
# T2 sequence (P50750 whole entry): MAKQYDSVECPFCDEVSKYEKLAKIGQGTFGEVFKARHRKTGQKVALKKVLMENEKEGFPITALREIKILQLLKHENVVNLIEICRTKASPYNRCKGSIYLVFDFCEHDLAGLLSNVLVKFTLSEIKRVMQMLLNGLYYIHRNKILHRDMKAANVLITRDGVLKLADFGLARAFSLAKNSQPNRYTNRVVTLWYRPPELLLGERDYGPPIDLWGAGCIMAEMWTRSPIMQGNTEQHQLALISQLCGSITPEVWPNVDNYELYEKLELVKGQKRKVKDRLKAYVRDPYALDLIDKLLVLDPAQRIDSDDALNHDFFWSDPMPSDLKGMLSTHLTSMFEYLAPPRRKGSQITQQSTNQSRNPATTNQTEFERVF
# T1 sequence (P19784 whole entry): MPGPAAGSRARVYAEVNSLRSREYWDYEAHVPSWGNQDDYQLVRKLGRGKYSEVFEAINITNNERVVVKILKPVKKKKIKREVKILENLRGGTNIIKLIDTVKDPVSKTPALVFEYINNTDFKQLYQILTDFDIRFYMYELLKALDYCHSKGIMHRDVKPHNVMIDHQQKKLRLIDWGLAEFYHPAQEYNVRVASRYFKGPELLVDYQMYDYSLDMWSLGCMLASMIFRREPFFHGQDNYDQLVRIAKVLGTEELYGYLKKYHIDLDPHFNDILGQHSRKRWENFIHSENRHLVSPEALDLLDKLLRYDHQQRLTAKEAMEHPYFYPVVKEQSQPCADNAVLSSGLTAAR
# T4 sequence (Q13535 whole entry): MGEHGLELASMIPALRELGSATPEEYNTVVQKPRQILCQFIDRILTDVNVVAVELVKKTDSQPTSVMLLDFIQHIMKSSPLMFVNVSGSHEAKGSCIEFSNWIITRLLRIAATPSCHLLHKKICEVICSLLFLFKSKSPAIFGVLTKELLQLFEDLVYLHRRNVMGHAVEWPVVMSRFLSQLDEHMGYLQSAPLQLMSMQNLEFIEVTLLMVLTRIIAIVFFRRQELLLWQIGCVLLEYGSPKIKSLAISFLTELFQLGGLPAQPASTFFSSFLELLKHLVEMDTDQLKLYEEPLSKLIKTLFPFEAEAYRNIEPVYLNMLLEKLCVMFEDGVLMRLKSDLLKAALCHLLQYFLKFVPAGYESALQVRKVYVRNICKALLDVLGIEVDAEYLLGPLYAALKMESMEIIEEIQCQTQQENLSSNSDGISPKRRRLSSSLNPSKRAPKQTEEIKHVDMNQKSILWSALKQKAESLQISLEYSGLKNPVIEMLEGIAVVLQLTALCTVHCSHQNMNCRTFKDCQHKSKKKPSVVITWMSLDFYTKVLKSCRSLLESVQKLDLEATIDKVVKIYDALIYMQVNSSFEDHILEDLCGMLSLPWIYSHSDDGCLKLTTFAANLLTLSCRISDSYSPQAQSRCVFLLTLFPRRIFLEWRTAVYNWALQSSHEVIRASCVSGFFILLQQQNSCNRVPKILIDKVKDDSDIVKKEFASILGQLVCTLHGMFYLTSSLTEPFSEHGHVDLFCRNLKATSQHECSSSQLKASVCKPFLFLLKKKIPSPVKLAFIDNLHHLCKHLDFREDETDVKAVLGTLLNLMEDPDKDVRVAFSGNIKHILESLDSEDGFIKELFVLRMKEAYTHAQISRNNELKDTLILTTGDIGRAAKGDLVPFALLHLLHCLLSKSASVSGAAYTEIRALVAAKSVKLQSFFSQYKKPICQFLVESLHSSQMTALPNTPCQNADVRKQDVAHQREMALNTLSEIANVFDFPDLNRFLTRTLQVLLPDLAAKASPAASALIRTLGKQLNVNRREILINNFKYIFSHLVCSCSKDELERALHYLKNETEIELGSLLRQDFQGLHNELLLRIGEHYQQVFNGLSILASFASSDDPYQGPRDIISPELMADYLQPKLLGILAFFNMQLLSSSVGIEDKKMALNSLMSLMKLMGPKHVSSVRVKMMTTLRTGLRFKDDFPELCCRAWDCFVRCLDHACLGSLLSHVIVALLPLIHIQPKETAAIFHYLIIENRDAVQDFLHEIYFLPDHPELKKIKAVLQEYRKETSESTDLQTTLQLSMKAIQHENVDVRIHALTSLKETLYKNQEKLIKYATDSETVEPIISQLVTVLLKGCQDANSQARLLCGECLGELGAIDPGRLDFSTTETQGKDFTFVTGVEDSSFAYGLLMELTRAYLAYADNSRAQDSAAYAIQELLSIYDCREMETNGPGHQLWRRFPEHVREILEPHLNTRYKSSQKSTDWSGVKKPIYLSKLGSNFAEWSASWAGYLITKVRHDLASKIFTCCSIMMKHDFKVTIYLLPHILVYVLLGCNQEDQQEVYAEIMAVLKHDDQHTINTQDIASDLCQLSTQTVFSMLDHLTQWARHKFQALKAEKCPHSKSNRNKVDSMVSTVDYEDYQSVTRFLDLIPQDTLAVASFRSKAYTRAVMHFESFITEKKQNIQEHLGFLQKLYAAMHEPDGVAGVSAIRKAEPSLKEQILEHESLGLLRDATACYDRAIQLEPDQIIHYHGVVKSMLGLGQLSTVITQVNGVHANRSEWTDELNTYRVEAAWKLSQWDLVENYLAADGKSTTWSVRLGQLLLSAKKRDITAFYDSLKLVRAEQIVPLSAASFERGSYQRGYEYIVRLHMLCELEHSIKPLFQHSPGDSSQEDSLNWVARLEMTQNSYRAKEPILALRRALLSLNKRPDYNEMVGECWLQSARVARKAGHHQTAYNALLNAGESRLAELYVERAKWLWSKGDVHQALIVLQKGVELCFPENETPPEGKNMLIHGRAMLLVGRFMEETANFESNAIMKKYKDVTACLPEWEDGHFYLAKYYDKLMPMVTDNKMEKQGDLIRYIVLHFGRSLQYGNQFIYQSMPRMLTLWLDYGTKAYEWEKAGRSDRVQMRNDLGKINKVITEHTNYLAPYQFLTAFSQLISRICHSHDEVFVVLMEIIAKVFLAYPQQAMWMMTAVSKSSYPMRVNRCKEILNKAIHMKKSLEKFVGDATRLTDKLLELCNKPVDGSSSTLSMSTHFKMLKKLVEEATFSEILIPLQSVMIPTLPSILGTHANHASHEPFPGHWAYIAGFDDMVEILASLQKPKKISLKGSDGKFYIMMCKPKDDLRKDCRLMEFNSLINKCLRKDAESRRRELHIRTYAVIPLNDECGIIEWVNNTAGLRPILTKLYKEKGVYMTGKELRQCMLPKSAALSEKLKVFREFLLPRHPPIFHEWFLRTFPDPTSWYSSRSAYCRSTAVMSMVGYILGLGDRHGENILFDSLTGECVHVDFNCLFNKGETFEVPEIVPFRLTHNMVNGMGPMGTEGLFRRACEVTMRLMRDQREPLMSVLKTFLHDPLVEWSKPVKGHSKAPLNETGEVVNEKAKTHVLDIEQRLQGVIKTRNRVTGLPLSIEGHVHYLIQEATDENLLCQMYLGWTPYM
compound,measurement,setting,value
C=CC(=O)Nc1cc(-c2cc(-c3cc4c([nH]3)CCNC4=O)ccn2)ccc1OC(F)(F)F [compound 11],inhibition at 0.01 µM,[1]; 10 nM,10%
same,inhibition at 0.1 µM,[1]; 100 nM,14%
same,inhibition at 1 µM,[1]; 1000 nM,26%
same,inhibition at 0.01 µM,[2]; 10 nM,8%
same,inhibition at 0.1 µM,[2]; 100 nM,2%
same,inhibition at 1 µM,[2]; 1000 nM,6%
same,inhibition at 0.01 µM,[3]; 10 nM,3%
same,inhibition at 0.1 µM,[3]; 100 nM,-12%
same,inhibition at 1 µM,[3]; 1000 nM,-1%
same,inhibition at 0.01 µM,[4]; 10 nM,-15%
same,inhibition at 0.1 µM,[4]; 100 nM,-17%
same,inhibition at 1 µM,[4]; 1000 nM,-20%
same,inhibition at 0.01 µM,[5]; 10 nM,14%
same,inhibition at 0.1 µM,[5]; 100 nM,33%
same,inhibition at 1 µM,[5]; 1000 nM,83%
